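Five concentrations, 48 hours, 96-well plates. GI50 marks 50% less growth. TGI marks complete inhibition of growth.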
system: SK-MEL-2 melanoma; assay: growth of human tumour cells (NCI), 48 h

SMILES	GI50 [µM]	TGI [µM]
COc1ccc(C(=O)/C=C/c2cccnc2Nc2cc(OC)c(OC)c(OC)c2)cc1	7.27	21
Nc1c(-c2ccc(Br)cc2)[n+]([O-])c2ccccc2[n+]1[O-]	–	> 100
CCCCNC(=O)NS(=O)(=O)c1ccc(N2N=C(c3ccc(C)cc3C)CC2c2ccc(N(C)C)cc2)cc1 (stereo unspecified)	3.13	8.46
C#CC[C@]12CC(=O)CC[C@H]1CC(=O)C2	–	> 100
CNC=O.[O]=[Ge].[O]=[Ge].[O]=[Ge].[O]=[Ge][OH].[O]=[Ge][OH]	–	> 100
N#CCCN(c1ccc(/C=C2\N=C(c3ccc(Cl)cc3)OC2=O)cc1)S(=O)(=O)c1ccccc1	–	> 100
Cc1cc(NS(=O)(=O)c2ccc(NC(=O)c3cccc4c(=O)c5ccccc5[nH]c34)cc2)no1	–	> 100
COc1ccc(C2CC(=O)c3c(OC)cc(OC)cc3O2)cc1 (stereo unspecified)	> 100	> 100
CCOC(=O)[C@H]1Nc2ccc(C)cc2C2c3ccccc3CC21 (stereo partly specified)	–	> 100
COc1ccc(-c2nc(-c3nc4ccc(C)cc4[nH]3)c3ccccn23)cc1	2.51	5.71
C[C@]12CC[C@@H]3c4ccc(O)cc4C[C@@H](CCCCCCCCCS(=O)CCCC(F)(F)C(F)(F)F)[C@H]3[C@@H]1CC[C@@H]2O (stereo partly specified)	> 100	> 100
COc1cc(-c2c(C#N)c(N)n3c(nc4ccccc43)c2C#N)cc(Br)c1OC	47.5	> 100
N#CCCN(CCC#N)c1ccc(/C=C2\N=C(CN3C(=O)c4ccccc4C3=O)OC2=O)cc1	–	> 100
Cn1cc(C2=C(c3cn(CCCN=C(N)N)c4ccccc34)C(=O)NC2=O)c2ccccc21	> 18.4	> 25
N#C/C(C(=S)Nc1ccccc1)=C1/NN=C2c3ccccc3C(=O)NN21	21	53.8
CC#CC(=O)Nc1ccccc1CC(c1c[nH]c2ccccc12)c1c[nH]c2ccccc12	–	34.4
C[C@]12CC[C@@H]3c4ccc(Oc5nc(N6CC6)nc(N6CC6)n5)cc4CC[C@H]3[C@@H]1CCC2=O	3.16	8.97
COc1cc(C(=O)O[C@H](C(N)=O)[C@]2(C)CO2)c2ccccc2c1	17.2	42.7
O=S(O)CCCCSSCCCCSSCCCCS(=O)O	–	> 100
CC(=O)SCCC1c2[nH]c3ccccc3c2CCN1O (stereo unspecified)	–	> 100
CCOC(=O)NC(=O)c1cn(CCCOC(=O)NCCCCCCNC(=O)OCCCn2c(=O)c(C(=O)NC(=O)OCC)cn(C)c2=O)c(=O)n(C)c1=O	–	> 100
COc1ccc2cc(C(=O)/C=C/c3cccc(OC)c3OC)ccc2c1	21.3	40.3
CCCCn1c(-c2ccc(C(=O)O/N=C(\N)c3ccc(OC)cc3)cc2)nc(-c2ccccc2)c1-c1ccccc1	2.75	8.36
CCCCC/C=C/C/C=C/CCCCCCCC1=NC(C)(C)CN1C(C)C	1.85	3.35
C[C@]12CC[C@@H]3c4ccc(O)cc4CC[C@H]3[C@@H]1CC[C@@H]2NS(=O)(=O)c1ccc(C(F)(F)F)cc1	2.13	4
O=C(CCCSc1nc(-c2ccc(Cl)cc2)cc(-c2ccc(Cl)cc2)n1)NO	4.02	20.4
O=C(CC(=O)N1N=C(c2ccccc2)C(N=Nc2ccc(Cl)cc2)C1=O)Nc1ccccc1Cl (stereo unspecified)	–	88.6

system: K-562 leukemia; assay: growth of human tumour cells (NCI), 48 h

SMILES	GI50 [µM]	TGI [µM]
Cc1c2c(nn1-c1ccc(S(=O)(=O)/N=C3\SCC(=O)N3C(=O)c3ccccc3)cc1)-c1ccccc1CC2	79.2	> 100
CN(C)C(=S)/N=c1\ss/c(=N\C(=S)N(C)C)n1-c1ccc2c(c1)OCO2	–	> 100
Nc1c(-c2ccc(Br)cc2)[n+]([O-])c2ccccc2[n+]1[O-]	–	> 100
CCCCNC(=O)NS(=O)(=O)c1ccc(N2N=C(c3ccc(C)cc3C)CC2c2ccc(N(C)C)cc2)cc1 (stereo unspecified)	3.58	> 100
C#CC[C@]12CC(=O)CC[C@H]1CC(=O)C2	–	> 100
CNC=O.[O]=[Ge].[O]=[Ge].[O]=[Ge].[O]=[Ge][OH].[O]=[Ge][OH]	–	> 100
N#CCCN(c1ccc(/C=C2\N=C(c3ccc(Cl)cc3)OC2=O)cc1)S(=O)(=O)c1ccccc1	–	> 100
Cc1cc(NS(=O)(=O)c2ccc(NC(=O)c3cccc4c(=O)c5ccccc5[nH]c34)cc2)no1	–	> 100
COc1ccc(C2CC(=O)c3c(OC)cc(OC)cc3O2)cc1 (stereo unspecified)	> 100	> 100
O=C(/C=C/c1ccccc1Cl)c1ccccc1Cl	–	47.7
CCOC(=O)[C@H]1Nc2ccc(C)cc2C2c3ccccc3CC21 (stereo partly specified)	–	> 100
COc1ccc(-c2nc(-c3nc4ccc(C)cc4[nH]3)c3ccccn23)cc1	2.92	> 100
COc1cc(-c2c(C#N)c(N)n3c(nc4ccccc43)c2C#N)cc(Br)c1OC	> 100	> 100
N#CCCN(CCC#N)c1ccc(/C=C2\N=C(CN3C(=O)c4ccccc4C3=O)OC2=O)cc1	–	> 100
Cn1cc(C2=C(c3cn(CCCN=C(N)N)c4ccccc34)C(=O)NC2=O)c2ccccc21	> 25	> 25
N#C/C(C(=S)Nc1ccccc1)=C1/NN=C2c3ccccc3C(=O)NN21	22.1	> 100
CC#CC(=O)Nc1ccccc1CC(c1c[nH]c2ccccc12)c1c[nH]c2ccccc12	–	39.2
NCCCNCCSSCCCCS(=O)O	–	> 100
C[C@]12CC[C@@H]3c4ccc(Oc5nc(N6CC6)nc(N6CC6)n5)cc4CC[C@H]3[C@@H]1CCC2=O	3.02	17.5
Cc1cccc(C(C)(C)C)c1NC(=O)CCc1n[nH]c(=S)o1	–	> 100
O=S(O)CCCCSSCCCCSSCCCCS(=O)O	–	> 100
CC(=O)SCCC1c2[nH]c3ccccc3c2CCN1O (stereo unspecified)	–	> 100
CCOC(=O)NC(=O)c1cn(CCCOC(=O)NCCCCCCNC(=O)OCCCn2c(=O)c(C(=O)NC(=O)OCC)cn(C)c2=O)c(=O)n(C)c1=O	–	> 100
COc1ccc(S(=O)(=O)N(Cc2ccc3c(n2)C=CC(C)(C)O3)C2CCC2)cc1OC	< 0.01	> 100
COc1ccc2cc(C(=O)/C=C/c3cccc(OC)c3OC)ccc2c1	2.84	12.1
CC(C)=CC(=O)N1CCN(C(=O)C=C(C)C)CC1	–	> 100
C[C@]12CC[C@@H]3c4ccc(O)cc4CC[C@H]3[C@@H]1CC[C@@H]2NS(=O)(=O)c1ccc(C(F)(F)F)cc1	3.16	8.69
O=C(CCCSc1nc(-c2ccc(Cl)cc2)cc(-c2ccc(Cl)cc2)n1)NO	0.727	> 100
O=C(CC(=O)N1N=C(c2ccccc2)C(N=Nc2ccc(Cl)cc2)C1=O)Nc1ccccc1Cl (stereo unspecified)	–	> 100

system: HOP-62 NSCLC; assay: growth of human tumour cells (NCI), 48 h

SMILES	GI50 [µM]	TGI [µM]
Cc1c2c(nn1-c1ccc(S(=O)(=O)/N=C3\SCC(=O)N3C(=O)c3ccccc3)cc1)-c1ccccc1CC2	33.5	> 100
CN(C)C(=S)/N=c1\ss/c(=N\C(=S)N(C)C)n1-c1ccc2c(c1)OCO2	–	> 100
COc1ccc(C(=O)/C=C/c2cccnc2Nc2cc(OC)c(OC)c(OC)c2)cc1	2.19	12.7
Nc1c(-c2ccc(Br)cc2)[n+]([O-])c2ccccc2[n+]1[O-]	–	> 100
CCCCNC(=O)NS(=O)(=O)c1ccc(N2N=C(c3ccc(C)cc3C)CC2c2ccc(N(C)C)cc2)cc1 (stereo unspecified)	6.86	> 100
C#CC[C@]12CC(=O)CC[C@H]1CC(=O)C2	–	> 100
CNC=O.[O]=[Ge].[O]=[Ge].[O]=[Ge].[O]=[Ge][OH].[O]=[Ge][OH]	–	> 100
N#CCCN(c1ccc(/C=C2\N=C(c3ccc(Cl)cc3)OC2=O)cc1)S(=O)(=O)c1ccccc1	–	> 100
Cc1cc(NS(=O)(=O)c2ccc(NC(=O)c3cccc4c(=O)c5ccccc5[nH]c34)cc2)no1	–	50.6
COc1ccc(C2CC(=O)c3c(OC)cc(OC)cc3O2)cc1 (stereo unspecified)	> 100	> 100
O=C(/C=C/c1ccccc1Cl)c1ccccc1Cl	–	> 100
CCOC(=O)[C@H]1Nc2ccc(C)cc2C2c3ccccc3CC21 (stereo partly specified)	–	> 100
COc1ccc(-c2nc(-c3nc4ccc(C)cc4[nH]3)c3ccccn23)cc1	3.72	> 100
C[C@]12CC[C@@H]3c4ccc(O)cc4C[C@@H](CCCCCCCCCS(=O)CCCC(F)(F)C(F)(F)F)[C@H]3[C@@H]1CC[C@@H]2O (stereo partly specified)	> 67.4	> 100
COc1cc(-c2c(C#N)c(N)n3c(nc4ccccc43)c2C#N)cc(Br)c1OC	> 100	> 100
N#CCCN(CCC#N)c1ccc(/C=C2\N=C(CN3C(=O)c4ccccc4C3=O)OC2=O)cc1	–	> 100
